Measured values reported in patent US9850219B1, “Phenothiazine derivatives and methods of use thereof” (Acenda Pharma, Inc., priority 2016, dated 2017).

Experiments:
[1] = system: lung cancer cells; experiment: Cytotoxicity SRB assay, summary of Table 2; format: cell-based, Human; settings: summary in words of Table 2
Description: (§1) Human non-small cell lung cancer (NSCLC) cell lines (e.g., A549, H441GL and H1299), colon cancer cell lines (e.g., HCT116 and DLD1), breast cancer cell lines (e.g., MCF7 and MDA-MB-231), and pancreatic cancer cell lines (e.g., PANC-1 and SUIT-2) were used in cytotoxicity studies. These NSCLC cell lines have intrinsic resistance to epidermal growth factor receptor (EGFR) inhibitors, e.g., gefitinib. A549 and H441GL are EGFR-wild type adenocarcinoma cell lines. H1299 is an EGFR-wild type large cell carcinoma cell line. HCT116 and DLD1 are metastatic colon cell lines. MCF7 is a hormone-responsive breast cancer cell line. MDA-MB-231 is a triple-negative breast cancer cell line. PANC-1 is a metastatic adenocarcinoma cell line. SUIT-2 is a pancreatic ductal adenocarcinoma cell line.
(§2) Cells were plated in 96-well plates at a density of 2000 cells per well in triplicate. The cells in each well were treated on the third day (to ensure proper plating efficiency and vitality) with different concentrations (0-50 μM) of each test compound for 48 h.
(§3) Cell viability was assessed using the sulforhodamine B (SRB) assay. The medium was discarded, and the adherent cells were fixed by 100 μL of cold 10% trichloroacetic acid (w/v) in each well for 1 h at 4° C. After fixation, cells were stained with 100 μL/well of 0.4% (w/v, in 1% acetic acid) SRB solution for 30 min at room temperature, and then washed 5 times with 1% acetic acid. After air-drying, 100 μL of 10 mM Tris base was added to each well and the absorbance was read at 530 nm. Cytotoxicity is expressed as the percent of cells in drug treated wells relative to number of cells in the solvent only control (set to 100%). Each experiment was performed independently in triplicate and cytotoxicity IC50 value of each test compound was calculated from cytotoxicity data obtained at various concentrations.
NA indicates no activity.

[2] = system: SUIT-2; experiment: Cytotoxicity, sulforhodamine B (SRB) assay, SUIT-2; format: cell-based, human; settings: Homo sapiens, SUIT-2, Pancreas, 48 h
Description: as §1
(§4) All cell lines were grown and maintained in RPMI medium supplemented with 10% fetal bovine serum (FBS, Invitrogen), 2 mM L-glutamine, 100 U/mL penicillin, and 100 μg/mL streptomycin. For cell the culture experiment, stock solution (10 mM) of each test compound was dissolved in dimethyl sulfoxide (DMSO; Sigma).
as §2, §3

[3] = system: H441GL cells; experiment: Study 2: tumor size in mouse lung cancer model; format: in vivo, NOD/SCID mice; settings: Study 2, 0.0127 mmol/kg daily, i.p.; for Tumor Size [Fold Change from Week 3 (Mean ± SD, n = 4)] Week 3: Week 3 (baseline, start of treatment)
Experimental: H441GL cells (1×10^6 cells in 100 μL phosphate-buffered saline/injection) were subcutaneously injected into the right flank of NOD/SCID mice (female, 4-6 weeks old). Mice were allowed 2 weeks for tumor growth. On the first day of Week 3 post injection, tumor-bearing mice were randomly divided into control group (DMSO vehicle, intraperitoneal (i.p.) injection) and test compound treatment groups (5 mg/kg/day, 5 days/week, i.p. injection). Over the period of 10 weeks, tumorigenesis in both groups was measured using a caliper on a weekly basis. The change in tumor size was expressed as in fold change from Week 3. In this study body weight of each mouse was also recorded at the end of each study week.
In this study, the daily dose was 0.0127 mmol/kg instead of 5 mg/kg.

[4] = system: HCT116; experiment: Cytotoxicity, sulforhodamine B (SRB) assay, HCT116; format: cell-based, human; settings: Homo sapiens, HCT-116, HCT116, Colon, 48 h
Description: as §1, §4, §2, §3

[5] = system: MCF7; experiment: Cytotoxicity, sulforhodamine B (SRB) assay, MCF7; format: cell-based, human; settings: Homo sapiens, MCF7, Breast, 48 h
Description: as §1, §4, §2, §3

[6] = system: H441GL; experiment: Cytotoxicity, sulforhodamine B (SRB) assay, H441GL; format: cell-based, Human; settings: Homo sapiens, 48 h, NA indicates no activity
Description: as §1, with “These NSCLC cell lines have intrinsic resistance to epidermal growth factor receptor (EGFR) inhibitors, e.g., gefitinib.” left out
as §4, §2, §3

[7] = system: PANC-1; experiment: Cytotoxicity, sulforhodamine B (SRB) assay, PANC-1; format: cell-based, human; settings: Homo sapiens, PANC-1, Pancreas, 48 h, NA = no activity
Description: as §1, §4, §2, §3

[8] = system: MDA-MB-231; experiment: Cytotoxicity, sulforhodamine B (SRB) assay, MDA-MB-231; format: cell-based, human; settings: Homo sapiens, MDA-MB-231, Breast, 48 h
Description: as §1, §4, §2, §3

[9] = system: H1299; experiment: Cytotoxicity, sulforhodamine B (SRB) assay, H1299; format: cell-based; settings: Homo sapiens, NCI-H1299, H1299, 48 h
Description: as §1, with “These NSCLC cell lines have intrinsic resistance to epidermal growth factor receptor (EGFR) inhibitors, e.g., gefitinib.” left out
as §4, §2, §3

[10] = system: A549; experiment: Cytotoxicity, sulforhodamine B (SRB) assay, A549; format: cell-based, Human; settings: Homo sapiens, A549, 48 h, NA indicates no activity
Description: as §1, with “These NSCLC cell lines have intrinsic resistance to epidermal growth factor receptor (EGFR) inhibitors, e.g., gefitinib.” left out
as §4, §2, §3

[11] = system: DLD1; experiment: Cytotoxicity, sulforhodamine B (SRB) assay, DLD1; format: cell-based, human; settings: Homo sapiens, DLD-1, DLD1, Colon, 48 h
Description: as §1, §4, §2, §3

| SMILES | inhibition of cell proliferation of lung cancer cells [1] | IC50 [2] | Tumor Size [Fold Change from Week 3 (Mean ± SD, n = 4)] Week 3 [3] | Tumor Size [Fold Change from Week 3 (Mean ± SD, n = 4)] Week 9 [3] | Tumor Size [Fold Change from Week 3 (Mean ± SD, n = 4)] Week 13 [3] | IC50 [4] | IC50 [5] | IC50 [6] | IC50 [7] | IC50 [8] | IC50 [9] | IC50 [10] | IC50 [11] |
| --- | --- | --- | --- | --- | --- | --- | --- | --- | --- | --- | --- | --- | --- |
| COCC(COCC(COCC(COCCOCCOCCN1CCN(CCCN2c3ccccc3Sc3ccc(C(F)(F)F)cc32)CC1)OC)OC)OC (stereo not shown) [Compound 25-1b, NDT-[CH2CH2O]n—[CH2CH(OCH3)CH2O]3—CH3] | inhibit cell proliferation | 10.9 µM | 1 ± 0 Fold Change | 10.2 ± 1.4 Fold Change | 25.0 ± 4.4 Fold Change | 7.2 µM | 12.2 µM | 8.8 µM | 10 µM | 11.2 µM | 6.9 µM | 11.4 µM | 11.7 µM |
| COCC(COCC(COCC(COCCOCCOCCOCCOCCOCCOCCOCCOCCN1CCN(CCCN2c3ccccc3Sc3ccc(C(F)(F)F)cc32)CC1)OC)OC)OC (stereo not shown) [Compound 25-2b, NDT-[CH2CH2O]n—[CH2CH(OCH3)CH2O]3—CH3] | inhibit cell proliferation | 13 µM | 1 ± 0 Fold Change | 13.0 ± 1.6 Fold Change | 35.7 ± 5.3 Fold Change | 11.4 µM | 10.9 µM | 11.4 µM | 2.9 µM | 13.1 µM | 13.9 µM | 14 µM | 15.3 µM |
| COCCOCCOCCOCC(COCC(COCC(CN1CCN(CCCN2c3ccccc3Sc3ccc(Cl)cc32)CC1)OC)OC)OC (stereo not shown) [Compound 26-1a, NDP-[CH2CH(OCH3)CH2O]3—[CH2CH2O]n—CH3] | inhibit cell proliferation | 25.8 µM | – | – | – | 11.2 µM | 14.6 µM | 12.1 µM | 15.8 µM | 13.5 µM | 24.9 µM | 11.2 µM | 22.3 µM |
| COCCOCCOCCOCCOCCOCCOCCOCCOCCOCC(COCC(COCC(CN1CCN(CCCN2c3ccccc3Sc3ccc(Cl)cc32)CC1)OC)OC)OC (stereo not shown) [Compound 26-2a, NDP-[CH2CH(OCH3)CH2O]3—[CH2CH2O]n—CH3] | inhibit cell proliferation | 26.9 µM | – | – | – | 13.3 µM | 24.2 µM | 25.4 µM | 27.9 µM | 16.3 µM | 42.6 µM | 23.8 µM | 32.8 µM |
| COCCOCCOCCOCCOCCOCCOCCOCCOCCOCC(COCC(COCC(CN1CCN(CCCN2c3ccccc3Sc3ccc(C(F)(F)F)cc32)CC1)OC)OC)OC (stereo not shown) [Compound 26-2b, NDT-[CH2CH(OCH3)CH2O]3—[CH2CH2O]n—CH3] | inhibit cell proliferation | 17.2 µM | – | – | – | 8.9 µM | 10 µM | 12.1 µM | 12.9 µM | 12.5 µM | 25.3 µM | 15.6 µM | 19.2 µM |
| OCC(O)COCC(O)COCC(O)CN1CCN(CCCN2c3ccccc3Sc3ccc(Cl)cc32)CC1 (stereo not shown) [Compound 33a, NDP-[CH2CH(OH)CH2O]3—H] | inhibit cell proliferation | 34 µM | – | – | – | 20.2 µM | 26 µM | 25 µM | 30.2 µM | 24.2 µM | 28.4 µM | 35.2 µM | 35.2 µM |
| OCC(O)COCC(O)COCC(O)CN1CCN(CCCN2c3ccccc3Sc3ccc(C(F)(F)F)cc32)CC1 (stereo not shown) [Compound 33b, NDT-[CH2CH(OH)CH2O]3—H] | inhibit cell proliferation | 25.7 µM | – | – | – | 14.9 µM | 13.8 µM | 17.9 µM | 23.5 µM | 14.8 µM | 20.8 µM | 19.8 µM | 26.4 µM |
